The text below walks through data of PubChem BioAssay AID330 (DTP/NCI, 2004).

“And” between values parts separate entries of the source, which are not always exact repeats. Equal entries are not always repeated. Toxic doses and inconclusive results are not listed.

The subject of the assay is P388 leukemia ip, CD2F1 mice, survival T/C. Put plainly: NCI In Vivo Anticancer Drug Screen. Data for tumor model P388 Leukemia (intraperitoneal) in CD2F1 (CDF1) mice. The conditions noted are these: endpoint: median survival time, higher = longer survival. The method, boiled down: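 Mice carrying the transplanted tumor received test compound or vehicle. Survival was recorded in each group, and the value is the treated-group measurement divided by that of the vehicle-treated control group.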

The mark [1] stands for this setting: dose: 50.0 mg/kg/injection, schedule: Q01DX005 (ip), vehicle: Klucel (hydroxypropylcellulose) (HPC).
The mark [2] stands for this setting: dose: 100.0 mg/kg/injection, schedule: Q01DX005 (ip), vehicle: Klucel (hydroxypropylcellulose) (HPC).
Where [3] appears, read: dose: 200.0 mg/kg/injection, schedule: Q01DX005 (ip), vehicle: Klucel (hydroxypropylcellulose) (HPC).
The mark [4] stands for this setting: dose: 100.0 mg/kg/injection, schedule: Q04DX002 (ip), vehicle: saline with Tween-80.
Setting [5] is: dose: 60.0 mg/kg/injection, schedule: Q01DX005 (ip), vehicle: Klucel (hydroxypropylcellulose) (HPC).
Setting [6] is: dose: 120.0 mg/kg/injection, schedule: Q01DX005 (ip), vehicle: Klucel (hydroxypropylcellulose) (HPC).
Setting [7] is: dose: 50.0 mg/kg/injection, schedule: Q01DX009 (ip), vehicle: Klucel (hydroxypropylcellulose) (HPC).
Where [8] appears, read: dose: 100.0 mg/kg/injection, schedule: Q01DX009 (ip), vehicle: Klucel (hydroxypropylcellulose) (HPC).
The mark [9] stands for this setting: dose: 200.0 mg/kg/injection, schedule: Q01DX009 (ip), vehicle: Klucel (hydroxypropylcellulose) (HPC).
Setting [10] is: dose: 50.0 mg/kg/injection, schedule: Q01DX005 (ip), vehicle: saline with Tween-80.
The mark [11] stands for this setting: dose: 100.0 mg/kg/injection, schedule: Q01DX005 (ip), vehicle: saline with Tween-80.
The mark [12] stands for this setting: dose: 200.0 mg/kg/injection, schedule: Q01DX005 (ip), vehicle: saline with Tween-80.
The mark [13] stands for this setting: dose: 12.5 mg/kg/injection, schedule: Q01DX009 (ip), vehicle: Klucel (hydroxypropylcellulose) (HPC).
Where [14] appears, read: dose: 25.0 mg/kg/injection, schedule: Q01DX009 (ip), vehicle: Klucel (hydroxypropylcellulose) (HPC).
The mark [15] stands for this setting: dose: 400.0 mg/kg/injection, schedule: Q01DX009 (ip), vehicle: Klucel (hydroxypropylcellulose) (HPC).
Setting [16] is: dose: 100.0 mg/kg/injection, schedule: Q04DX002 (ip), vehicle: saline.
The mark [17] stands for this setting: dose: 200.0 mg/kg/injection, schedule: Q04DX002 (ip), vehicle: saline.
Setting [18] is: dose: 400.0 mg/kg/injection, schedule: Q04DX002 (ip), vehicle: saline.
Where [19] appears, read: dose: 50.0 mg/kg/injection, schedule: Q01DX009 (ip), vehicle: saline.
Setting [20] is: dose: 100.0 mg/kg/injection, schedule: Q01DX009 (ip), vehicle: saline.
Where [21] appears, read: dose: 200.0 mg/kg/injection, schedule: Q01DX009 (ip), vehicle: saline.

With `c1ccc(CSc2ncnc3nc[nH]c23)cc1`, the T/C is 100 % of control (dose: 12.5 mg/kg/injection, schedule: Q01DX010 (ip), vehicle: saline); 100 % of control (dose: 25.0 mg/kg/injection, schedule: Q01DX010 (ip), vehicle: saline); 90 % of control (dose: 50.0 mg/kg/injection, schedule: Q01DX010 (ip), vehicle: saline); 90 % of control (dose: 100.0 mg/kg/injection, schedule: Q01DX010 (ip), vehicle: saline).
In the case of `O=C1NC(=O)C2=C1CCC2Br` (stereo not drawn), the T/C runs as follows: (dose: 3.13 mg/kg/injection, schedule: Q01DX009 (ip), vehicle: distilled water + Tween-80) 101 % of control; (dose: 6.25 mg/kg/injection, schedule: Q01DX009 (ip), vehicle: distilled water + Tween-80) 102 % of control.
As for `O=C1N=c2ccccc2=C1c1sc(=O)n(Cc2nc3ccccc3[nH]2)c1O`, the T/C under setting [1] was 102 % of control, the T/C under setting [2] was 97 % of control and the T/C under setting [3] was 93 % of control.
On to `CS/C(=C\c1sc2ccccc2[n+]1C)SCC(=O)c1ccccc1`, for which the T/C by setting is: (dose: 25.0 mg/kg/injection, schedule: Q04DX002 (ip), vehicle: saline with Tween-80) 100 % of control; (dose: 50.0 mg/kg/injection, schedule: Q04DX002 (ip), vehicle: saline with Tween-80) 104 % of control; under setting [4], 106 % of control.
On to `O=C(O)C1CC(=O)N(Cc2ccccc2)C1` (stereo not drawn), for which the T/C is 95 % of control (dose: 100.0 mg/kg/injection, schedule: Q04DX003 (ip), vehicle: saline with Tween-80); 100 % of control (dose: 200.0 mg/kg/injection, schedule: Q04DX003 (ip), vehicle: saline with Tween-80); 100 % of control (dose: 400.0 mg/kg/injection, schedule: Q04DX003 (ip), vehicle: saline with Tween-80).
With `N#CC(CCCC(C#N)c1ccccc1)c1ccccc1` (stereo not drawn), the T/C is 106 % of control (dose: 50.0 mg/kg/injection, schedule: Q01DX001 (ip), vehicle: Klucel (hydroxypropylcellulose) (HPC)) and 108 % of control (dose: 100.0 mg/kg/injection, schedule: Q01DX001 (ip), vehicle: Klucel (hydroxypropylcellulose) (HPC)).
As to `Cc1nn(C)c2ccc3ccccc3c(=O)c12`, the T/C is 101 % of control under setting [5]; 102 % of control under setting [6]; 105 % of control (dose: 240.0 mg/kg/injection, schedule: Q01DX005 (ip), vehicle: Klucel (hydroxypropylcellulose) (HPC)).
With `NCC(=O)c1ccc2ccccc2c1`, the T/C reads like this: under setting [5], 105 % of control; under setting [6], 106 % of control.
As for `CP1(=O)CC23CCCCC2(C1)O3` (stereo not drawn), the T/C is, setting by setting: under setting [7], 109 % of control; under setting [8], 104 % of control; under setting [9], 109 % of control.
Consider `Cc1nc2ccc3c(ccc4nc(C)c(N=Nc5ccc(C(=N)N)cc5)c(O)c43)c2c(O)c1N=Nc1ccc(C(=N)N)cc1`, for which the T/C was 114 % of control under setting [10], 116 % of control under setting [11] and 116 % of control under setting [12].
With `Cc1cnc(NCCCCNc2ncc(C)c(-c3ccccc3O)n2)nc1-c1ccccc1O`, the T/C is, setting by setting: under setting [1], 101 % of control; under setting [2], 101 % of control; under setting [3], 89 % of control.
On to `O=C1Nc2ccc(Cl)cc2C(c2ccccc2)=NC1O` (stereo not drawn), for which the T/C by setting is: under setting [13], 97 % of control; under setting [14], 97 % of control; under setting [7], 108 % of control; under setting [8], 89 % of control; under setting [9], 111 % of control; under setting [15], 99 % of control.
Consider `O=C(O)CC(CC(=O)c1ccccc1)c1ccccc1` (stereo not drawn), for which the T/C by setting is: under setting [13], 104 % of control; under setting [14], 101 % of control; under setting [7], 103 % of control and 108 % of control; under setting [8], 101 % of control and 102 % of control and 107 % of control; under setting [9], 104 % of control and 94 % of control; under setting [15], 104 % of control and 93 % of control.
In the case of `Fc1c2ccccc2c2ccc3cccc4ccc1c2c43`, the T/C by setting is: (dose: 50.0 mg/kg/injection, schedule: Q04DX002 (ip), vehicle: saline) 103 % of control and 104 % of control; under setting [4], 117 % of control; under setting [16], 100 % of control and 110 % of control; under setting [17], 100 % of control and 113 % of control; under setting [18], 103 % of control.
For the compound `C[Si](C)(C)N1CCCC1`, the T/C runs as follows: (dose: 25.0 mg/kg/injection, schedule: Q01DX009 (ip), vehicle: saline) 105 % of control; under setting [19], 89 % of control; under setting [20], 90 % of control; under setting [21], 107 % of control.
Regarding `CC(C)c1ccc2c(c1)CCC1C(C)(CN)CCCC21C` (stereo not drawn), the T/C reads like this: under setting [1], 97 % of control; under setting [2], 99 % of control.
On to `O=C1CSC(c2cccc(Cl)c2)N1CCN1C(=O)CSC1c1cccc(Cl)c1` (stereo not drawn), for which the T/C runs as follows: under setting [10], 100 % of control; under setting [11], 93 % of control; under setting [12], 86 % of control.
As to `BrCC[N+]12CC[N+](CCBr)(CC1)C2`, the T/C is 114 % of control (dose: 6.25 mg/kg/injection, schedule: Q01DX009 (ip), vehicle: saline); 116 % of control (dose: 12.5 mg/kg/injection, schedule: Q01DX009 (ip), vehicle: saline); 203 % of control and 110 % of control and 121 % of control under setting [19]; 101 % of control (dose: 50.0 mg/kg/injection, schedule: Q04DX003 (ip), vehicle: water); 202 % of control and 115 % of control and 118 % of control under setting [20]; 108 % of control (dose: 100.0 mg/kg/injection, schedule: Q04DX003 (ip), vehicle: water). The T/C was 114 % of control under setting [21] and 173 % of control (dose: 400.0 mg/kg/injection, schedule: Q04DX003 (ip), vehicle: water).
In the case of `COc1c2c(c3c(c1OC)CN(CC(c1ccccc1)c1ccccc1)CC3)CCC2`, the T/C is 101 % of control under setting [16], 103 % of control under setting [17] and 103 % of control under setting [18].
As to `Cc1cc(OC(=O)c2c(-c3c(Cl)cccc3Cl)noc2C)n(-c2ccc(NC(=O)c3c(-c4c(Cl)cccc4Cl)noc3C)cc2)n1`, the T/C under setting [19] was 93 % of control, the T/C under setting [20] is 89 % of control and the T/C under setting [21] is 88 % of control.
Turning to `COc1ccc(C(=O)N2C(=O)CCC2=O)cc1`, the T/C was 109 % of control under setting [7]; 115 % of control under setting [8]; 113 % of control (dose: 100.0 mg/kg/injection, schedule: Q04DX003 (ip), vehicle: Klucel (hydroxypropylcellulose) (HPC)); 113 % of control (dose: 200.0 mg/kg/injection, schedule: Q04DX003 (ip), vehicle: Klucel (hydroxypropylcellulose) (HPC)); 114 % of control (dose: 400.0 mg/kg/injection, schedule: Q04DX003 (ip), vehicle: Klucel (hydroxypropylcellulose) (HPC)).
Consider `CC(C)=CCC/C(C)=C/COC(=O)C=[N+]=[N-]`, for which the T/C is, setting by setting: (dose: 50.0 mg/kg/injection, schedule: Q01DX009 (ip), vehicle: saline with Tween-80) 114 % of control and 91 % of control; (dose: 100.0 mg/kg/injection, schedule: Q01DX009 (ip), vehicle: saline with Tween-80) 122 % of control; (dose: 200.0 mg/kg/injection, schedule: Q01DX009 (ip), vehicle: saline with Tween-80) 117 % of control and 122 % of control; (dose: 400.0 mg/kg/injection, schedule: Q01DX009 (ip), vehicle: saline with Tween-80) 95 % of control.
In the case of `CC(=O)Oc1ccccc1O`, the T/C was 106 % of control (dose: 25.0 mg/kg/injection, schedule: Q01DX009 (ip), vehicle: saline + Tween-80 + alcohol); 101 % of control and 105 % of control and 116 % of control (dose: 50.0 mg/kg/injection, schedule: Q01DX009 (ip), vehicle: saline + Tween-80 + alcohol); 109 % of control and 115 % of control (dose: 100.0 mg/kg/injection, schedule: Q01DX009 (ip), vehicle: saline + Tween-80 + alcohol).
